For eleven molecules, EC50 and IC50 results are on record in patent publication US9611252B2 (LifeSci Pharmaceuticals, Inc., priority 2013, dated 2017).

The structures appear in SMILES notation.

The target of one assay is kallikrein (Homo sapiens (Human), UniProt P03952). Briefly: In vitro cellular assay (contact assay): kallikrein activity in ellagic acid-activated human plasma, substrate Z-FR-2-AMC. In kind it is biochemical. As to conditions: human plasma activated with ellagic acid, Z-FR-2-AMC substrate, 37° C.; read-out: Contact Assay EC50. As for the experimental part:
The ability of the compounds disclosed herein to inhibit cellular kallikrein activity was quantified and the respective EC50 value was determined.
All dilutions were prepared in an assay buffer comprising 50 mM Tris-HCl pH 7.2, 150 mM NaCl, and 0.01% Triton X-100.
The ten solutions of the test compounds, prepared by serial dilution, were further diluted 50-fold in the assay buffer.
Human plasma is thawed on ice and centrifuged for 15 min at 4° C. to remove platelets. A 1 mM stock solution of ellagic acid is diluted to 8 μM and mixed with human plasma, after removing platelets, at a ratio of 1:0.8.
A 22.5 μL volume of the final mixture of human plasma and ellagic acid was added to a 96-well microwell plate and the plate was incubated for 15 min at 37° C.
The CINH inhibitor at various concentrations, prepared by serial dilutions as described above, were added to the inhibitor control wells. […] Each CINH concentration is tested in duplicates.
The test compounds at various concentrations, also prepared by serial dilutions as described above, are added to the test wells. […] Each test compound concentration was tested in duplicates.
In addition to the inhibitor control and test wells, the 96 well assay plate includes positive control wells which contained the mixture of human plasma and ellagic acid without C1NH inhibitor or test compounds, and background wells which contained neither the mixture of human plasma and ellagic acid nor the test compounds. The total volume of liquid in positive control and background wells was brought up to 35 μL, using the assay buffer.
The assay plate containing C1NH inhibitors and test compounds mixed with human plasma and ellagic acid and appropriate controls was incubated at 37° C. for 5 min. […] The reagents were mixed well by shaking the plate gently for 30 sec.
The enzyme reaction was quantified by immediate kinetic reading of the assay plate using excitation/emission wavelengths of 330 nm/440 nm respectively. Fluorescence intensity was recorded for 60 min, using a time interval of 43 sec.
The inhibition activity of the test compounds were evaluated using the IC50 values, calculated according to the dose-response curve of the test compounds, fitted using the “log(inhibitor)-response (variable slope)” equation in GraphPadPrism software (GraphPad Software, Inc.).
The percentage inhibition was calculated using the following equation:
[formula] where, Mean(BG) is the average value of the fluorescence intensity of the background wells and Mean(PC) is the average value of the fluorescence intensity of the positive control wells.
Table 4 provides the EC50 values of various compounds disclosed herein.

Another assay has as its target human Plasma Kallikrein (Homo sapiens (Human), UniProt P03952). Briefly: In vitro enzyme inhibition of human plasma kallikrein (PFR-AMC cleavage). Format: biochemical. As to conditions: human plasma kallikrein, Pro-Phe-Arg-AMC substrate, 37° C.; read-out: hPK IC50. The gist of the method: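 Compound pre-incubated with human plasma kallikrein 5 min at 37° C in 50 mM Tris-HCl pH 7.5, 150 mM NaCl, 0.01% Triton X-100. Reaction started with PFR-AMC, cleavage read kinetically at 37° C every 43 s for 1 h.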

Chain of human Plasma Kallikrein (P03952 20-638): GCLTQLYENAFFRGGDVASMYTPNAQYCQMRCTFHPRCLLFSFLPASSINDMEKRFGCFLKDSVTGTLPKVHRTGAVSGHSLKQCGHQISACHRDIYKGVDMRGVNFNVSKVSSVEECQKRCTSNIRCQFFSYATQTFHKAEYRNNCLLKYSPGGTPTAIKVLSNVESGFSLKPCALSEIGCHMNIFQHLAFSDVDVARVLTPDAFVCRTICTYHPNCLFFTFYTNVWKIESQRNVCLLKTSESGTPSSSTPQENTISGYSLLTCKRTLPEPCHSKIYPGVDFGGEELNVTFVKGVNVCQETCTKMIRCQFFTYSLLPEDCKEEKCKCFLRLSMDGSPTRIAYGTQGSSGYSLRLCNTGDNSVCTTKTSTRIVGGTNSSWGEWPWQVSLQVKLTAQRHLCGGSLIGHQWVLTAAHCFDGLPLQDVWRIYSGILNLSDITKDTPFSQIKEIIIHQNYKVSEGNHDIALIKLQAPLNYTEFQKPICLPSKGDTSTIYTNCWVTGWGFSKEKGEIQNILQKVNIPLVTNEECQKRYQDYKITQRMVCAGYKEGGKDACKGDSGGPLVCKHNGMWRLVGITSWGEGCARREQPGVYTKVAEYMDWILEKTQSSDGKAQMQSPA
Chain of kallikrein (P03952 20-638): as above

Usually EC50 stands for the concentration at which the effect is half-maximal. A word on the IC50: it is the point on the concentration scale where inhibition reaches its midpoint. With `NC(=O)c1cc(Cc2cc(C(=O)NCc3ccc4[nH]cc(Cl)c4c3F)ccn2)cc2cc(Cl)cnc12` [Example 65, 3-chloro-6-((4-(((3-chloro-4-fluoro-1H-indol-5-yl)methyl)carbamoyl)pyridin-2-yl)methyl)quinoline-8-carboxamide], the EC50 on kallikrein is under 100 nM. On human Plasma Kallikrein, the IC50 was under 100 nM.

As to `NC(=O)c1cc(Cc2cc(C(=O)NCc3cc4cc[nH]c4cc3F)ccn2)cc2cc(Cl)cnc12` [Example 66, 3-chloro-6-((4-(((6-fluoro-1H-indol-5-yl)methyl)carbamoyl)pyridin-2-yl)methyl)quinoline-8-carboxamide], the half-maximal effective concentration (EC50) on kallikrein was 100 to 1000 nM. On human Plasma Kallikrein, the 50% inhibitory concentration (IC50) was under 100 nM.

In the case of `Cc1cc(N)nc(C)c1CNC(=O)c1ccnc(Cc2cc(S(C)(=O)=O)c3ncc(Cl)cc3c2)c1` [Example 67, N-((6-amino-2,4-dimethylpyridin-3-yl)methyl)-2-((3-chloro-8-(methylsulfonyl)quinolin-6-yl)methyl)isonicotinamide], the 50% effective concentration (EC50) at kallikrein is under 100 nM. Further, at human Plasma Kallikrein, the IC50 is under 100 nM.

For `CS(=O)(=O)c1cc(Cc2cc(C(=O)NCc3cc4c(Cl)c[nH]c4cc3F)ccn2)cc2cc(Cl)cnc12` [Example 68, N-((3-chloro-6-fluoro-1H-indol-5-yl)methyl)-2-((3-chloro-8-(methylsulfonyl)quinolin-6-yl)methyl)isonicotinamide], on kallikrein, the concentration giving a half-maximal response (EC50) is under 100 nM. For the same molecule, the half-inhibitory concentration (IC50) on human Plasma Kallikrein was under 100 nM.

As for `Cc1nc(N)ccc1CNC(=O)c1ccnc(Cc2cc(S(C)(=O)=O)c3ncc(Cl)cc3c2)c1` [Example 69, N-((6-amino-2-methylpyridin-3-yl)methyl)-2-((3-chloro-8-(methylsulfonyl)quinolin-6-yl)methyl)isonicotinamide], the EC50 on kallikrein is under 100 nM. In addition, the IC50 at human Plasma Kallikrein was under 100 nM.

As for `Cc1cnc2c(C#N)cc(Cc3cc(C(=O)NCc4c(C)cc(N)nc4C)ccn3)cc2c1` [Example 70, N-((6-amino-2,4-dimethylpyridin-3-yl)methyl)-2-((8-cyano-3-methylquinolin-6-yl)methyl)isonicotinamide], the concentration for a half-maximal effect (EC50) on kallikrein is under 100 nM. Moreover, the concentration for half-maximal inhibition (IC50) on human Plasma Kallikrein was under 100 nM.

For the molecule `Cc1cnc2c(C#N)cc(Cc3cc(C(=O)NCc4ccc5c(N)nccc5c4)ccn3)cc2c1` [Example 71, N-((1-aminoisoquinolin-6-yl)methyl)-2-((8-cyano-3-methylquinolin-6-yl)methyl)isonicotinamide], the EC50 at kallikrein is under 100 nM. In addition, the 50% inhibitory concentration (IC50) on human Plasma Kallikrein is under 100 nM.

Consider `Cc1cnc2c(C#N)cc(Cc3cc(C(=O)NCc4cc5c(Cl)c[nH]c5cc4F)ccn3)cc2c1` [Example 72, N-((3-chloro-6-fluoro-1H-indol-5-yl)methyl)-2-((8-cyano-3-methylquinolin-6-yl)methyl)isonicotinamide], for which the EC50 on kallikrein lay within 100 to 1000 nM. In addition, on human Plasma Kallikrein, the concentration for half-maximal inhibition (IC50) is under 100 nM.

With `Cc1cnc2c(C#N)cc(Cc3cc(C(=O)NCc4cnc5[nH]cc(Cl)c5c4)ccn3)cc2c1` [Example 73, N-((3-chloro-1H-pyrrolo[2,3-b]pyridin-5-yl)methyl)-2-((8-cyano-3-methylquinolin-6-yl)methyl)isonicotinamide], on kallikrein, the EC50 lay within 100 to 1000 nM. Moreover, on human Plasma Kallikrein, the 50% inhibitory concentration (IC50) is under 100 nM.

Take `Cc1cnc2c(C(N)=O)cc(Cc3cc(C(=O)NCc4c(C)cc(N)nc4C)ccn3)cc2c1` [Example 77, 6-((4-(((6-amino-2,4-dimethylpyridin-3-yl)methyl)carbamoyl)pyridin-2-yl)methyl)-3-methylquinoline-8-carboxamide]: at kallikrein, the 50% effective concentration (EC50) was under 100 nM. The half-inhibitory concentration (IC50) at human Plasma Kallikrein is under 100 nM.

As for `Cc1cnc2c(C(N)=O)cc(Cc3cc(C(=O)NCc4cc5c(Cl)c[nH]c5cc4F)ccn3)cc2c1` [Example 78, 6-((4-(((3-chloro-6-fluoro-1H-indol-5-yl)methyl)carbamoyl)pyridin-2-yl)methyl)-3-methylquinoline-8-carboxamide], at kallikrein, the concentration for a half-maximal effect (EC50) is under 100 nM. Besides, on human Plasma Kallikrein, the 50% inhibitory concentration (IC50) was under 100 nM.
